Measured values: a melting point compilation (Tetko et al.)

In the case of `O=Cc1ccc(OCC(=O)c2ccccc2)cc1`, the melting point is reported as 115 to 119 °C.

Compound `CC(=CC(=O)O)c1cccc(C(F)(F)F)c1` has a melting point of 135 to 137 °C.

`Cc1nc(S)n(C2CC2)c1C` showed a melting point of 178 to 180 °C.

Work on `COC(=O)Nc1ccccc1C(=O)O` yielded a melting point of 177 to 179 °C.

With `Clc1ccc(CNC2=NCCS2)cc1` the melting point was 106 to 108 °C.

Compound `O=c1[nH]c2cc(Br)cc(Cl)c2o1` has a melting point of 189 to 191 °C.

`Cc1cc(O)n(C(C)(C)C)n1` gave a melting point of 125 to 127 °C.

`Cn1ccnc1C(=O)c1cc(S)nc2ccccc12` gave a melting point of 250 to 252 °C.

`Cn1ccnc1SCC(=O)Nc1ccccc1C(=O)O` showed a melting point of 203 to 205 °C.

`CN1C(=O)CCC(C(N)=O)C1c1cccs1` (stereo not drawn) showed a melting point of 179 to 181 °C.

`O=C(O)c1ccc(N2CCOCC2)c(F)c1` showed a melting point of 220 to 222 °C.

Work on `CNC(=O)c1ccc(Cl)cc1N` yielded a melting point of 93 to 95 °C.

`CC(C)(C)OC(=O)NNCCS(C)(=O)=O` showed a melting point of 105 to 107 °C.

`Cc1cc(C)nc(-n2nc(N)cc2C)n1` gave a melting point of 134 to 136 °C.

`CC(C)(C(=O)O)c1cccc(Br)c1` gave a melting point of 68 to 70 °C.

With `CN(C)C(=O)COc1ccc(C#N)cc1` the melting point was 110 to 112 °C.

In the case of `CCc1nnc2ccc(Cl)nn12`, the melting point is reported as 100 to 102 °C.

Work on `Nc1nc(-c2ccsc2)ns1` yielded a melting point of 172 to 174 °C.

In the case of `N#CCc1ccc(Oc2ccc(C(=O)O)cc2)cc1`, the melting point is reported as 183 to 185 °C.

Work on `Cc1c(NC(=O)CSc2ccccc2C(=O)O)c(=O)n(-c2ccccc2)n1C` yielded a melting point of 120 to 123 °C.

Work on `[N-]=[N+]=NC1(c2ccc(F)cc2)CCOCC1` yielded a melting point of 63 to 65 °C.

For `COc1ccc(/C=C/C(=O)O)cc1S(=O)(=O)Cl`, the melting point was 184 to 186 °C.

For `Cc1nc(-c2ccc(N)cc2)oc1C`, the melting point was 150 to 152 °C.

With `CN(C)CC(O)C(F)(F)F` (stereo not drawn) the melting point was 63 to 65 °C.

With `FC(F)(F)c1nc(S)c2ccccc2n1` the melting point was 214 to 216 °C.

Compound `CC(C)(C)OC(=O)C(C#N)c1ccc([N+](=O)[O-])cn1` (stereo not drawn) has a melting point of 168 to 170 °C.

With `O=C(O)CN1CCS(=O)(=O)CC1` the melting point was 179 to 181 °C.

`COc1cc(C=O)c2c(c1)CC(C)O2` (stereo not drawn) gave a melting point of 71 to 73 °C.

With `CCc1cccc(CC)c1NC(=O)C(C)Cl` (stereo not drawn) the melting point was 166 to 168 °C.

Work on `CC(N)C(O)c1c(F)cccc1F` (stereo not drawn) yielded a melting point of 119 to 121 °C.

In the case of `CC(C)(C)OC(=O)N[C@@H]1CCCCC[C@H]1N`, the melting point is reported as 72 to 74 °C.

For `CCC(Nc1nnnn1-c1ccccc1)C(=O)O` (stereo not drawn), the melting point was 149 to 151 °C.

`CC(C)S(=O)(=O)c1ccc(C(=O)O)cc1` showed a melting point of 186 to 188 °C.

For `Cc1cc(S(=O)(=O)Cl)cc(C(=O)O)c1Cl`, the melting point was 169 to 171 °C.

`O=C(O)Cc1cccc(OCCCOc2ccccc2)c1` gave a melting point of 78 to 80 °C.

With `CC1CC(C)CN(S(=O)(=O)Cl)C1` (stereo not drawn) the melting point was 41 to 43 °C.

In the case of `CC1(c2ccc(C(N)=O)cc2)NC(=O)NC1=O` (stereo not drawn), the melting point is reported as 163 to 165 °C.

`COc1ccccc1C(=O)NCC(=O)O` showed a melting point of 69 to 71 °C.

`Cc1nc(COc2ccccc2/C=C/C(=O)O)cs1` gave a melting point of 143 to 145 °C.

For `O=C(O)c1cccnc1Sc1ccc(Br)cc1`, the melting point was 223 to 225 °C.

In the case of `NNC(=O)c1ccc(COc2cccc3cccnc23)cc1`, the melting point is reported as 135 to 137 °C.

With `Nc1sc2c(c1C(=O)NC1CC1)CCC2` the melting point was 170 to 172 °C.

Compound `Oc1ccc(/C=C/c2ccc3ccccc3n2)cc1` has a melting point of 289 to 291 °C.

Compound `Cc1cc(Cl)ccc1OCCCC(=O)NN` has a melting point of 37 to 39 °C.

With `O=C1CCc2cc(F)ccc2N1` the melting point was 134 to 136 °C.

In the case of `O=C(O)C1(c2cccc(F)c2)CCCCC1`, the melting point is reported as 135 to 137 °C.

`O=C(O)C(Cc1ccccc1Br)Cc1ccccc1Br` showed a melting point of 145 to 147 °C.

`CC(=O)c1nc2ccccc2n1C(F)F` showed a melting point of 65 to 67 °C.

Work on `CCOC(=O)c1c(NC(=O)CCl)sc(C)c1CC` yielded a melting point of 97 to 99 °C.

For `COc1cc2c(c(OC)c1)C(=O)C(=O)N2`, the melting point was 289 to 291 °C.

`O=C(NC1CC1)C(=O)N1CCNCC1` gave a melting point of 100 to 102 °C.

`O=C(O)c1cnc(Oc2ccccc2)cn1` gave a melting point of 134 to 136 °C.

With `COc1cccc(NC(=O)OCC(F)(F)F)c1` the melting point was 58 to 60 °C.

`CC(N)c1nn[nH]n1` (stereo not drawn) gave a melting point of 263 to 265 °C.

Compound `CC(=O)c1ccc2c3c(cccc13)CC2` has a melting point of 58 to 60 °C.

Compound `O=C(O)CCN1C(=O)c2ccccc2S1(=O)=O` has a melting point of 164 to 166 °C.

For `Cc1ccc(N2CC(C(=O)O)CCC2=O)cc1C` (stereo not drawn), the melting point was 184 to 186 °C.

For `COCCCS(N)(=O)=O`, the melting point was 41 to 43 °C.

For `COc1ccc(C#N)cc1N`, the melting point was 74 to 76 °C.

`CCCc1cc(=O)[nH]c(CCC)n1` gave a melting point of 69 to 71 °C.

`CCOC(=O)c1cnc(O)nc1C` gave a melting point of 179 to 181 °C.

`CCOC(=O)C1=NN(c2ccc(Cl)cc2)C(=O)C1` gave a melting point of 141 to 143 °C.

`Cc1cccc2c1C(=O)NCCN2` gave a melting point of 182 to 184 °C.

In the case of `CC(=O)c1ccc(NC(=O)c2ccc(C#N)cc2)cc1`, the melting point is reported as 228 to 230 °C.

For `O=C(O)c1ccc2[nH]c(=O)[nH]c2c1`, the melting point was 373 to 375 °C.

With `Nn1c(S)nnc1-c1cccnc1` the melting point was 190 to 192 °C.

In the case of `O=C(O)C1CCCN1C(=O)c1cncn1-c1ccccc1` (stereo not drawn), the melting point is reported as 133 to 135 °C.

In the case of `O=C1CC2CCCN2c2ccccc2N1` (stereo not drawn), the melting point is reported as 139 to 141 °C.

With `COc1ccccc1-c1cc(N)[nH]n1` the melting point was 94 to 96 °C.

Work on `NC(C(=O)O)c1ccc(Br)cc1` (stereo not drawn) yielded a melting point of 249 to 251 °C.

Work on `NNC(=O)NCC1CCCO1` (stereo not drawn) yielded a melting point of 79 to 81 °C.

In the case of `CS(=O)(=O)NCCCN`, the melting point is reported as 61 to 63 °C.

With `Cn1ccc2ccnc(Cl)c21` the melting point was 57 to 59 °C.

In the case of `Cc1c(C(=O)O)cc(F)cc1S(=O)(=O)Cl`, the melting point is reported as 121 to 123 °C.

For `CCN(C(=O)OC(C)(C)C)C(C#N)c1cccnc1` (stereo not drawn), the melting point was 66 to 68 °C.

`CCc1ccccc1NC(=O)CCl` showed a melting point of 106 to 108 °C.

For `O=C(O)C1CC(=O)N(c2ccc(Cl)c(F)c2)C1` (stereo not drawn), the melting point was 149 to 151 °C.

In the case of `CN(C)S(=O)(=O)c1cc(Br)cnc1N`, the melting point is reported as 173 to 175 °C.

Work on `N#CC1COCCN1` (stereo not drawn) yielded a melting point of 76 to 78 °C.

`Cc1ccc(-c2cc(C(=O)O)on2)cc1` showed a melting point of 204 to 206 °C.

Compound `COC(C)(C)C(N)=NO` has a melting point of 104 to 106 °C.

Compound `Nc1ccccc1NS(=O)(=O)c1ccccc1` has a melting point of 169 to 171 °C.

Work on `O=C(CSc1nnc(S)s1)c1ccccc1` yielded a melting point of 188 to 192 °C.

Work on `Cc1ccccc1C(=O)NCCC(=O)O` yielded a melting point of 110 to 112 °C.

`NC1CCN(c2ccc(Cl)c(F)c2)C1=O` (stereo not drawn) showed a melting point of 69 to 71 °C.

With `CCc1nc2c(s1)C(O)CCC2` (stereo not drawn) the melting point was 75 to 77 °C.

Compound `Cc1cccc2[nH]cc(CCC(=O)O)c12` has a melting point of 145 to 147 °C.

For `COc1cc(-c2cc(C(=O)NN)c3ccccc3n2)cc(OC)c1OC`, the melting point was 200 to 202 °C.

Work on `O=S(=O)(c1ccc(F)cc1)C(F)F` yielded a melting point of 51 to 53 °C.

For `Cn1cccc1C(=O)NN`, the melting point was 113 to 115 °C.

For `Nc1ccc(OCc2cn3ccccc3n2)cc1`, the melting point was 146 to 148 °C.

For `O=C(O)CC1CCCN1C(=O)c1ccc(Br)c(F)c1` (stereo not drawn), the melting point was 134 to 136 °C.

`O=C(O)c1cn(-c2ccccc2)nc1-c1ccncc1` showed a melting point of 235 to 237 °C.

`Nc1c(F)ccc(Cl)c1C(=O)O` gave a melting point of 161 to 163 °C.

In the case of `O=C(CCl)NCC1CCCc2ccccc21` (stereo not drawn), the melting point is reported as 114 to 116 °C.

With `O=C(O)c1ccc(Cl)cc1-n1cccc1` the melting point was 142 to 144 °C.

`O=C(O)c1cnn(Cc2ccccc2)c1` gave a melting point of 149 to 151 °C.

`OCc1csc(-c2ccccn2)n1` showed a melting point of 95 to 97 °C.

Compound `ClCc1cc2c(cc1Cl)OCCCO2` has a melting point of 55 to 57 °C.

Work on `CCOC(=O)c1ccc2c(c1)CCCN2` yielded a melting point of 79 to 81 °C.

`CCOC(=O)c1c(NC(=O)CCl)sc(C(C)=O)c1C` showed a melting point of 176 to 178 °C.

For `COc1ccc2c(C)cc(NN)nc2c1`, the melting point was 250 to 252 °C.

`NC(=O)c1ccccc1Oc1ncccc1C(=O)O` gave a melting point of 253 to 255 °C.
